Test results as given in patent US20140249135A1, “PIM KINASE INHIBITORS AND METHODS OF THEIR USE” (NOVARTIS AG, priority 2007, published 2014).
Where two headings read alike, the source gives them in different places.

Legend:
Type in all cases: biochemical
Pim3 kinase = Pim3 kinase (Homo sapiens, UniProt Q86V86); assay: Pim3 ATP depletion assay
Pim2 kinase = Pim2 kinase (Homo sapiens, UniProt Q9P1W9); assay: Pim2 ATP depletion assay;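 note: Luciferase-based luminescent readout of ATP remaining after PIM2 phosphorylates a BAD peptide, final 5 nM enzyme, 4 µM ATP, 10 µM peptide, 2.5% DMSO, run to roughly half ATP consumption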
Sequence of Pim2 kinase (Q9P1W9 whole entry): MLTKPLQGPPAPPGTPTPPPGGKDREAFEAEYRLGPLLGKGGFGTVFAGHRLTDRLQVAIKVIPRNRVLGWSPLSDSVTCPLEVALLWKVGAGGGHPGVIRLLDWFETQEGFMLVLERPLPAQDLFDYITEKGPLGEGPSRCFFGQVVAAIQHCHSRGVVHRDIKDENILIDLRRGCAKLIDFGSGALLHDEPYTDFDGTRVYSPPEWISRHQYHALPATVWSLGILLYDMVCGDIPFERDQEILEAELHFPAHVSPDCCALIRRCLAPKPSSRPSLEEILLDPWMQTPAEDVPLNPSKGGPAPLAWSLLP

Pim1 kinase = Pim1 kinase (Homo sapiens, UniProt P11309); assay: Pim1 ATP depletion assay; conditions: Pim1 ATP depletion assay;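 note: Luciferase-luciferin luminescence readout of residual ATP after PIM1 transfers phosphate to a peptide substrate, 40 µM ATP added, reaction run to roughly half ATP consumption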
Sequence of Pim1 kinase (P11309 whole entry): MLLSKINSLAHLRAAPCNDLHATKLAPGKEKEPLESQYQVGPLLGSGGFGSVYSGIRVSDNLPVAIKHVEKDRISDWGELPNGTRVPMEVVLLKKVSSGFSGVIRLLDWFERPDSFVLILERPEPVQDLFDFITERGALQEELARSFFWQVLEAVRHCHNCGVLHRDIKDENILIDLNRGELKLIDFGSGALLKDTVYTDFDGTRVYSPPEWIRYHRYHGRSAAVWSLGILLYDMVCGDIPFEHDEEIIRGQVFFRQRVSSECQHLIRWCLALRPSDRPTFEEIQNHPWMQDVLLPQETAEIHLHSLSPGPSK

IC50 (Pim3 kinase; read-out: IC50 (μM) PIM3) [µM]	IC50 (Pim2 kinase; read-out: IC50 (μM) PIM2) [µM]	IC50 (Pim1 kinase; read-out: IC50 (μM) PIM1) [µM]	IC50 (Pim3 kinase; read-out: PIM3 IC50) [µM]	IC50 (Pim2 kinase; read-out: PIM2 IC50) [µM]	IC50 (Pim1 kinase; read-out: PIM1 IC50) [µM]	Compound
< 1	< 1	< 1				N#Cc1cccc(-c2ccc(N)c(C(=O)Nc3cnccc3N3CCC[C@H](N)C3)n2)c1 [Example 461, 3-Amino-6-(3-cyano-phenyl)-pyridine-2-carboxylic acid (3-amino-3,4,5,6-tetrahydro-2H-[1,4′]bipyridinyl-3′-yl)-amide]
			< 1	< 1	< 1	CC(=O)c1cccc(-c2ccc(N)c(C(=O)Nc3cnccc3N3CCC[C@H](N)C3)n2)n1 [Example 706, 6′-Acetyl-5-amino-[2,2′]bi-pyridinyl-6-carboxylic acid (3-amino-3,4,5,6-tetrahydro-2H-[1,4′]bipyridinyl-3′-yl)-amide]
			< 1	< 1	< 1	Cc1cc(-c2ccncc2NC(=O)c2nc(-c3nccs3)ccc2N)cc(N)n1 [Example 641, 3-amino-N-(2′-amino-6′-methyl-4,4′-bipyridin-3-yl)-6-(1,3-thiazol-2-yl)pyridine-2-carboxamide]
			< 1	< 1	< 1	Nc1cncc(-c2ccncc2NC(=O)c2nc(-c3ccccc3F)ccc2N)n1 [Example 625, 3-amino-N-[4-(6-amino-pyrazin-2-yl)pyridin-3-yl]-6-(2-fluorophenyl)pyridine-2-carboxamide]
			< 1	< 1	< 1	Nc1cc(-c2ccncc2NC(=O)c2nc(-c3ccccc3F)ccc2N)nc(N)n1 [Example 627, 3-amino-N-[4-(2,6-diaminopyrimidin-4-yl)pyridin-3-yl]-6-(2-fluorophenyl)pyridine-2-carboxamide]
< 1	< 1	< 1				CCCOc1ccc(F)c(-c2ccc(N)c(C(=O)Nc3cnccc3-c3cc(N)nc(SC)n3)n2)c1F [Example 532, 3-Amino-6-(2,6-difluoro-3-propoxy-phenyl)-pyridine-2-carboxylic acid [4-(6-amino-2-methylsulfanyl-pyrimidin-4-yl)-pyridin-3-yl]-amide]
< 1	< 1	< 1				COc1nc(N)cc(-c2ccncc2NC(=O)c2nc(-c3c(F)cccc3F)ccc2N)n1 [Example 271, 3-Amino-6-(2,6-difluoro-phenyl)-pyridine-2-carboxylic acid [4-(6-amino-2-methoxy-pyrimidin-4-yl)-pyridin-3-yl]-amide]
			< 1	< 1	< 1	COC(=O)c1nc(-c2nc(C(=O)Nc3cnccc3N3CCC[C@H](N)C3)c(N)cc2F)c(F)cc1N [Example 742, 5,5′-Diamino-6′-(3-amino-3,4,5,6-tetrahydro-2H-[1,4′]bi-pyridinyl-3′-ylcarbamoyl)-3,3′-difluoro-[2,2′]bipyridinyl-6-carboxylic acid methyl ester]
< 1	< 1	< 1				Nc1ccc(-c2nc(C(=O)Nc3cnccc3N3CCC[C@H](N)C3)c(N)cc2F)cn1 [Example 514, 5,6′-Diamino-3-fluoro-[2,3′]bi-pyridinyl-6-carboxylic acid (3-amino-3,4,5,6-tetrahydro-2H-[1,4′]bipyridinyl-3′-yl)-amide]
< 1	< 1	< 1				CO[C@@H]1C[C@H](N)CN(c2ccncc2NC(=O)c2nc(C3CCCCC3)ccc2N)C1 [Example 285, 3-Amino-6-cyclohexyl-pyridine-2-carboxylic acid (3-amino-5-methoxy-3,4,5,6-tetrahydro-2H-[1,4′]bipyridinyl-3′-yl)-amide]
			< 1	1 to 10	< 1	Nc1ccc(-c2ccccc2F)nc1C(=O)Nc1cnccc1-c1cncnc1 [Example 602, 3-amino-6-(2-fluorophenyl)-N-(4-pyrimidin-5-ylpyridin-3-yl)pyridine-2-carboxamide]
			< 1	< 1	< 1	Nc1cc(-c2ccncc2NC(=O)c2cccc(-c3nccs3)n2)nc(C(F)(F)F)n1 [Example 647, N-{4-[6-amino-2-(trifluoro-methyl)pyrimidin-4-yl]-pyridin-3-yl}-6-(1,3-thiazol-2-yl)pyridine-2-carboxamide]
			< 1	< 1	< 1	Cc1ccc(-c2ccc(N)c(C(=O)Nc3cnccc3-c3cc(N)nc(C)n3)n2)c(F)c1 [Example 558, 3-Amino-6-(2-fluoro-4-methyl-phenyl)-pyridine-2-carboxylic acid [4-(6-amino-2-methyl-pyrimidin-4-yl)-pyridin-3-yl]-amide]
			< 1	< 1	< 1	CCCOc1ccc(F)c(-c2ccc(N)c(C(=O)Nc3cnccc3-c3cc(C)nc(N)n3)n2)c1F [Example 562, 3-Amino-6-(2,6-difluoro-3-propoxy-phenyl)-pyridine-2-carboxylic acid [4-(2-amino-6-methyl-pyrimidin-4-yl)-pyridin-3-yl]-amide]
			< 1	< 1	< 1	CCOc1ccc(F)c(-c2ncc(N)c(C(=O)Nc3cnccc3N3CCC[C@H](N)C3)n2)c1 [Example 548, 5-Amino-2-(5-ethoxy-2-fluoro-phenyl)-pyrimidine-4-carboxylic acid (3-amino-3,4,5,6-tetrahydro-2H-[1,4′]bipyridinyl-3′-yl)-amide]
< 1	< 1	< 1				Nc1cc(F)cnc1C(=O)Nc1cnccc1N1CCC[C@H](N)C1 [Example 260, 3-amino-N-{4-[(3S)-3-amino-piperidin-1-yl]pyridin-3-yl}-5-fluoropyridine-2-carboxamide]
			< 1	< 1	< 1	CC(C)NC(=O)c1ccc(F)c(-c2ccc(N)c(C(=O)Nc3cnccc3N3CC[C@@H](F)[C@H](N)C3)n2)c1F [Example 733, 3-Amino-6-(2,6-difluoro-3-isopropylcarbamoyl-phenyl)-pyridine-2-carboxylic acid (3-amino-4-fluoro-3,4,5,6-tetra-hydro-2H-[1,4′]bipyridinyl-3′-yl)-amide]
			< 1	< 1	< 1	Nc1ccc(-c2ccc(F)cn2)nc1C(=O)Nc1cnccc1N1CCC[C@H](N)C1 [Example 727, 5-Amino-5′-fluoro-[2,2′]bi-pyridinyl-6-carboxylic acid (3-amino-3,4,5,6-tetrahydro-2H-[1,4′]bipyridinyl-3′-yl)-amide]
< 1	< 1	< 1				NCCC(=O)N1CCN(c2ccncc2NC(=O)c2nc(-c3ccccc3F)ccc2N)CC1 [Example 251, 3-Amino-6-(2-fluoro-phenyl)-pyridine-2-carboxylic acid {4-[4-(3-amino-propionyl)-piperazin-1-yl]-pyridin-3-yl}-amide]
			< 1	< 1	< 1	Nc1cc(-c2ccncc2NC(=O)c2nc(-c3ccc(CN4CCOCC4)cc3)ccc2N)nc(C(F)(F)F)n1 [Example 572, 3-Amino-6-(4-morpholin-4-ylmethyl-phenyl)-pyridine-2-carboxylic acid [4-(6-amino-2-trifluoromethyl-pyrimidin-4-yl)-pyridin-3-yl]-amide]
